Test results from patent US10953027B2, “Active agents and methods of their use for the treatment of metabolic disorders and nonalcoholic fatty liver disease” (Flagship Pioneering Innovations V, Inc., priority 2018, dated 2021).

Columns and labels:
[1] = Assay 1. Stability in Simulated Gastric Fluid (SGF); format: in vitro ADME; conditions: 1 μM, 37° C., SGF pH 1.6 with pepsin
Experimental: Assay 1. Stability of acylated active agents in Simulated Gastric Fluid (SGF). This assay was used to assess the stability of an acylated active agent in a stomach.
Medium was prepared by dissolving 2 g of sodium chloride in 0.6 L of ultrapure water (MilliQ®, Millipore Sigma, Darmstadt, Germany). The pH was adjusted to 1.6 with 1N hydrochloric acid, and the volume was then adjusted to 1 L with purified water.
60 mg FaSSIF powder (Biorelevant™, London, UK) were dissolved in 500 mL buffer (above). Pepsin was added (0.1 mg/mL) (Millipore Sigma, Darmstadt, Germany), and the solution was stirred. The resulting SGF media were used fresh for each experiment.
Test compounds were dissolved in DMSO stock to 1 mM. An aliquot of the DMSO stock solution was removed and diluted in the SGF Media in 15 mL falcon tubes to generate a compound concentration of 1 μM. A 1 mL aliquot was immediately removed and diluted once with 1 volume of acetonitrile for T0 timepoint. The mixture was sealed and mixed at 37° C. in an incubator. Aliquots (1 mL) were removed at regular intervals and immediately quenched by the addition of 1 volume of acetonitrile. The resulting samples were analyzed by LC/MS to determine degradation rates in SGF.

[2] = Assay 2. Stability in Simulated Intestinal Fluid (SIF); format: in vitro ADME; conditions: 1 μM, 37° C., SIF pH 6.7 with pancreatin
Experimental: Assay 2. Stability of acylated active agents in Simulated Intestinal Fluid (SIF). This assay was used to assess the stability of an acylated active agent in a small intestine.
Phosphate buffer was prepared by dissolving 0.42 g of sodium hydroxide pellets and 3.95 g of monobasic sodium phosphate monohydrate and 6.19 g of sodium chloride in ultrapure water (MilliQ®, Millipore Sigma, Darmstadt, Germany). The pH was adjusted to 6.7 using aq. HCl and aq. NaOH, as necessary, and the solution was diluted with ultrapure water to produce 1 L of the pH 6.7 buffer.
112 mg FaSSIF powder (Biorelevant™, London, UK) was dissolved in 50 mL of the pH 6.7 buffer. 2 to 3 mL of the resulting solution were then added to 500 mg pancreatin (Millipore Sigma, Darmstadt, Germany). The resulting mixture was agitated by finger tapping the vessel containing the mixture until milky suspension formed. At this time, the remainder of the 50 mL FaSSiF/pH 6.7 buffer solution was added. The resulting suspension was flipped upside down 10 times to produce SIF, which was used fresh.
Test compounds were dissolved in DMSO stock to 1 mM. An aliquot of the DMSO stock solution was removed and diluted in the SIF media in 15 mL falcon tubes to produce a mixture with a tested compound concentration of 1 μM. A 1 mL aliquot was immediately removed and diluted once with 1 volume of acetonitrile for T0 timepoint. The mixture was sealed and agitated at 37° C. in an incubator. Aliquots (1 mL) were removed at regular intervals and immediately quenched by the addition of 1 volume of acetonitrile. The resulting samples were analyzed by LC/MS to determine degradation rates.

| SMILES | Assay 1 (SGF) (% Remaining @ 1 hours) [1] | Assay 2 (SIF) (% @ Remaining 4 hours) [2] |
| --- | --- | --- |
| C=C1CC[C@H](OC(=O)C2(C)OCC[C@@H](C)O2)C/C1=C/C=C1\CCC[C@]2(C)[C@@H]([C@H](C)CCCC(C)C)CC[C@@H]12 (stereo partly drawn) [Compound 70, [(1 S,3Z)-3-[(2E)-2-[(1R,3aS,7aR)-1-[(1R)-1,5-dimethylhexyl]-7a-methyl-2,3,3a,5,6,7-hexahydro-1H-inden-4-ylidene]ethylidene]-4-methylene-cyclohexyl] (4R)-2,4-dimethyl-1,3-dioxane-2-carboxylate] | B (B: 25-75% of the tested compound remaining) | C (C: >75% of the tested compound remaining) |
| CCC(=O)OC1OC[C@@H](OC(=O)CC)[C@H](OC(=O)CC)[C@H]1OC(=O)CC (stereo partly drawn) [Compound 162, (3R,4S,5R)-3,4,5-tris(propanoyloxy)oxan-2-yl Propanoate] | C (C: >75% of the tested compound remaining) | A (A: <25% of the tested compound remaining) |
| CCC(=O)OCC[C@@H](C)OC(=O)Oc1ccc(/C=C/c2cc(OC(=O)O[C@H](C)CCOC(=O)CC)cc(OC(=O)O[C@H](C)CCOC(=O)CC)c2)cc1 [Compound 76, (3R,3′R)-((((5-((E)-4-(((((R)-4-(propionyloxy)butan-2-yl)oxy)carbonyl)oxy)styryl)-1,3-phenylene)bis(oxy))bis(carbonyl))bis(oxy))bis(butane-3,1-diyl) dipropionate] | B (B: 25-75% of the tested compound remaining) | A (A: <25% of the tested compound remaining) |
| CCCC(=O)O[C@@H]1[C@@H](OC(=O)CCC)[C@H](Oc2ccc(N)cc2C(=O)O)OC[C@H]1OC(=O)CCC [Compound 34, 5-amino-2-[(2S,3R,4S,5R)-3,4,5-tri(butanoyloxy)tetrahydropyran-2-yl]oxy-benzoic Acid] | C (C: >75% of the tested compound remaining) | C (C: >75% of the tested compound remaining) |
| CCCC(=O)O[C@H]1[C@@H](OC(=O)CCC)COC(O)[C@@H]1OC(=O)CCC (stereo partly drawn) [Compound 72, (3R,4S,5S)-2-hydroxytetrahydro-2H-pyran-3,4,5-triyl Tributyrate] | C (C: >75% of the tested compound remaining) | A (A: <25% of the tested compound remaining) |
| C=C1CC[C@H](OC(=O)[C@H](OC(=O)CCC)[C@@H](OC(=O)CCC)[C@H](OC(=O)CCC)[C@@H](COC(=O)CCC)OC(=O)CCC)C/C1=C/C=C1\CCC[C@]2(C)[C@@H]([C@H](C)CCCC(C)C)CC[C@@H]12 [Compound 67, [(1 S,3Z)-3-[(2E)-2-[(1R,3aS,7aR)-1-[(1R)-1,5-dimethylhexyl]-7a-methyl-2,3,3a,5,6,7-hexahydro-1H-inden-4-ylidene]ethylidene]-4-methylene-cyclohexyl] (2R,3S,4R,5R)-2,3,4,5,6-penta(butanoyloxy)hexanoate] | B (B: 25-75% of the tested compound remaining) | A (A: <25% of the tested compound remaining) |
| CC(=O)Oc1ccc(/C=C/c2cc(OC(C)=O)cc(OC(C)=O)c2)cc1 [Compound 18, [4-[(E)-2-(3,5-diacetoxyphenyl)vinyl]phenyl] acetate] | C (C: >75% of the tested compound remaining) | C (C: >75% of the tested compound remaining) |
| O=C(CCc1c[nH]c2ccccc12)O[C@@H]1[C@H](OC(=O)CCc2c[nH]c3ccccc23)C=C(C(=O)O)C[C@H]1OC(=O)CCc1c[nH]c2ccccc12 [Compound 253, (3R,4S,5R)-3,4,5-tris({[3-(1H-indol-3-yl)propanoyl]oxy})cyclohex-1-ene-1-carboxylic Acid] | B (B: 25-75% of the tested compound remaining) | B (B: 25-75% of the tested compound remaining) |
